According to patent US4897379A, “N-[N^α -(1(S)-carboxy-3-cyclohexylpropyl)-L-lysyl]-N-cyclopentylglycine as antihypertensives” (Asahi Breweries Ltd., priority 1987, dated 1990):

How the values were obtained:
[1] = tested on: angiotensin converting enzyme; details: Nature 288, 280 (1980); Chem. Pharm. Bull. 34, 1128 (1986); cited from earlier work
rabbit lung ACE = molecular target: T1, rabbit lung ACE (Oryctolagus cuniculus, UniProt P12822); test: Inhibition of rabbit lung ACE by the method of Friedland and Silverstein; format: biochemical; details: for IC50: rabbit lung ACE, method of Friedland and Silverstein, read-out: IC50 (M) = Concentration inhibiting 50% of the activity of rabbit lung ACE
T1 construct: from tissue; host or cells: rabbit lung
T1 sequence (P12822 34-1310): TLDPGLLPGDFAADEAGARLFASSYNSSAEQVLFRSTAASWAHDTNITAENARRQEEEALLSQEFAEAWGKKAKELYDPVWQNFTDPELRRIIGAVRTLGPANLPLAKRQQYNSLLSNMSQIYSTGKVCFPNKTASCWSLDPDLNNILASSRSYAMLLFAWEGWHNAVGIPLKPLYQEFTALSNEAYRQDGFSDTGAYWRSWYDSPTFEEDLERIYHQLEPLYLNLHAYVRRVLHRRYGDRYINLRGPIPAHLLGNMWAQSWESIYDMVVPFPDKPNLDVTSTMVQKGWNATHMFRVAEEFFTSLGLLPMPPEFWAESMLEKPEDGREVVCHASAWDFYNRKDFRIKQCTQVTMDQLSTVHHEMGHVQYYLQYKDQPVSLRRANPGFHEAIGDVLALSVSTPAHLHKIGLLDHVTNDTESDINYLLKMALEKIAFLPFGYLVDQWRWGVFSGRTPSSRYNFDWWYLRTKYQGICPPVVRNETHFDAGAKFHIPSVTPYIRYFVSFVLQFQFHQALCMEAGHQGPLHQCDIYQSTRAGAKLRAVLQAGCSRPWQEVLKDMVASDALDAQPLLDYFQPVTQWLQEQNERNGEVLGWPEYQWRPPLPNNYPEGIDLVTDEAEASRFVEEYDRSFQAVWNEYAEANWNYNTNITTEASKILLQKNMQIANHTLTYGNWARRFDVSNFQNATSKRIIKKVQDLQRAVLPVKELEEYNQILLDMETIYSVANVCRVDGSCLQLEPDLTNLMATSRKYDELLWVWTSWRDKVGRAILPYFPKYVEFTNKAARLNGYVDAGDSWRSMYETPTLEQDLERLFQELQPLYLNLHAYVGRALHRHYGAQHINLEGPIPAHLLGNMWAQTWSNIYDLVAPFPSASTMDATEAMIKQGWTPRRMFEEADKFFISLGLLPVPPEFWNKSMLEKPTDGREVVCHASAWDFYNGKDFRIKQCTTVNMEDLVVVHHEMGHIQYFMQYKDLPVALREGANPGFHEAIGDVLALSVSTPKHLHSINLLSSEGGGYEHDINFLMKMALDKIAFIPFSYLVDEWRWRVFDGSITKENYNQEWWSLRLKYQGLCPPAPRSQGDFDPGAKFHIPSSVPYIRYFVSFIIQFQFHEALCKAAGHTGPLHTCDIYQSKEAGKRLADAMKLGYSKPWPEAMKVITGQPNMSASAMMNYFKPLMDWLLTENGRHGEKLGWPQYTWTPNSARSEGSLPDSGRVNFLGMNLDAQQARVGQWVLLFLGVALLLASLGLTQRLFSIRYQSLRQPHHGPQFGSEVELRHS
Experimental: IC50 (M) = Concentration inhibiting 50% of the activity of rabbit
lung ACE was determined by the method of Friedland and Silverstein.

SMILES	order of strength of activity [1]	IC50 (rabbit lung ACE)	strength of activity relative to Lisinopril (rabbit lung ACE; ACE inhibition, compared with Lisinopril)
NCCCC[C@H](N[C@@H](CCc1ccccc1)C(=O)O)C(=O)N1CCC[C@H]1C(=O)O [Lisinopril]	Lisinopril>Enalapril>CV-3317	1.1e-09 M	–
CCOC(=O)[C@H](CCc1ccccc1)N[C@@H](C)C(=O)N(CC(=O)O)C1Cc2ccccc2C1 [CV-3317]	Lisinopril>Enalapril>CV-3317	–	–
CCOC(=O)[C@H](CCc1ccccc1)N[C@@H](C)C(=O)N1CCC[C@H]1C(=O)O [Enalapril]	Lisinopril>Enalapril>CV-3317	–	–
NCCCC[C@H](N[C@@H](CCC1CCCCC1)C(=O)O)C(=O)N(CC(=O)O)C1CCCC1 [N-[N^α -(1(S)-carboxy-3-cyclohexylpropyl)-L-lysyl]-N-cyclopentylglycine]	–	1e-10 M	more than 10 times
